Assay results taken from PMC8940841, “A metabolically stable PET tracer for imaging synaptic vesicle protein 2A: synthesis and preclinical characterization of [^18F]SDM-16” (European Journal of Nuclear Medicine and Molecular Imaging, 2021).
Where two headings read alike, the source gives them in different places. One block for each molecule: values may come before it.

Columns and labels:
human SV2A [1] = target: T1, human SV2A (Homo sapiens, UniProt Q7L0J3); parameters: Duplicate samples of human frontal cortex gray matter were homogenized in PBS buffer; from tissue; host or cells: human frontal cortex gray matter homogenate; settings: other SV2A ligands; read-out: Ki; cited from earlier work
T1 sequence (Q7L0J3 whole entry): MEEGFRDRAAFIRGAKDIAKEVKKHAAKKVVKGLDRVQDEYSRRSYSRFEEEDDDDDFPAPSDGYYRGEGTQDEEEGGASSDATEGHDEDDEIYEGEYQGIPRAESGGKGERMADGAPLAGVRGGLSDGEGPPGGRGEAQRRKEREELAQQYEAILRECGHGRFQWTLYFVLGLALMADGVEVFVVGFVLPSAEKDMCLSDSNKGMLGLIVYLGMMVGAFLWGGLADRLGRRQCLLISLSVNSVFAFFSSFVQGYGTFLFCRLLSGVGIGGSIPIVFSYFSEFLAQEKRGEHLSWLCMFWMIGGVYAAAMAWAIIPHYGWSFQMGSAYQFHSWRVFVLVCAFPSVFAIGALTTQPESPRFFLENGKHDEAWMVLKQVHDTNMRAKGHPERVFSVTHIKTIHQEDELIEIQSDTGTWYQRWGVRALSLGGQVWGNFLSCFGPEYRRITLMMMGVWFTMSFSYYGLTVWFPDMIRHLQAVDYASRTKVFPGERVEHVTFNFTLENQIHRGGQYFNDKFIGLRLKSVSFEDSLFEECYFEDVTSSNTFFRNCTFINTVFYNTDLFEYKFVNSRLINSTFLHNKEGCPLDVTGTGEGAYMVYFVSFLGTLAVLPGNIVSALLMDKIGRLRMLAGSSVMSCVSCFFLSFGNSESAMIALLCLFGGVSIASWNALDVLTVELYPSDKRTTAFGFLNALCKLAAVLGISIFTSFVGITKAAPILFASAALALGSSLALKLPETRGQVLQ

human SV2A [2] = target: T1, human SV2A; test: biochemical
Experimental: Competition binding assays were performed twice independently using separate assay materials, with 4 technical replicates from each independent assay. […] Duplicate samples of human frontal cortex gray matter were homogenized in PBS buffer (10 mg/mL) for storage at − 80 °C and were diluted to a stock concentration of 4 mg/mL in PBS on the day of the assays. […] Working stocks of brain homogenate (100 µL; final concentration of 2 mg/mL), blocking ligands (20 µL), and radioligand (80 µL; final concentration 2.5 nM) were combined in quadruplicate wells of 96-well plates, sealed, and incubated at room temperature for 90 min on an orbital shaker set to 250 RPM. Reaction plates were filtered, rapidly washed with cold PBS, and dried. Forty microliters of Microscint-20 scintillation cocktail (Perkin-Elmer) was added to each well, and the plate was counted using a Microbeta2 plate reader (Perkin-Elmer). GraphPad Prism was used for curve fitting using the one-site Ki model.

[3] = Adverse event observation during PET imaging; assay type: in vivo, rhesus monkeys; settings: tracer at microdose 0.646–0.926 µg; LEV i.v. 30 mg/kg
Experimental: Four monkeys were studied.
Adverse event was also not observed following LEV (i.v., 30 mg/kg) administration, including the displacement and blocking scan.

[4] = Measurement of lipophilicity (octanol / PBS pH 7.4); assay type: physicochemical; settings: octanol/PBS pH 7.4
Experimental: The logP of [^18F]SDM-16 was determined by a method modified from previously published procedures. Briefly, an aliquot of […] (10 µCi) of the radioligand was added to a 2-mL microtube containing 0.8 mL of octanol and 0.8 mL of 1 × phosphate buffered saline (1 × PBS, pH 7.4). The mixture was vortexed for 30 s and then centrifuged at 2000 g for 2 min. A subsample of the octanol (0.1 mL) and 1 × PBS (0.5 mL) layers was evaluated with a gamma counter. The major portion of the octanol layer (0.5 mL) was diluted with another 0.3 mL of octanol, mixed with a fresh portion of 0.8 mL of PBS, vortexed, centrifuged, and analyzed as described above. This process was repeated until consistent log P values were obtained, with five consecutive equilibration procedures being performed for each logP measurement. Four separate measurements were performed for [^18F]SDM-16 on different days.

[5] = Brain PET imaging with 1TC kinetic modeling; settings: rhesus monkey, in vivo
[6] = Plasma free fraction (fp) by ultrafiltration; assay type: in vitro ADME, rhesus monkey; settings: monkey, plasma (separated from spiked whole blood)
Experimental: The unbound fraction of [^18F]SDM-16 in plasma (fp) of rhesus monkey was measured in triplicate using the ultrafiltration method. Briefly, [^18F]SDM-16 solution was added to 3 mL of whole blood. After incubation at ambient temperature for 5 min, the blood sample was centrifuged at 3900 rpm for 5 min. A sample of the supernatant plasma (0.3 mL) was loaded onto the reservoir of a Centrifree® Ultrafiltration device (Merck Millipore Ltd. Tullagreen, Carrigtwohill, Co. Cork, IRELAND) in triplicate and centrifuged at 1228 g for 20 min. The fp value was calculated as the ratio of radioactivity in the filtrate to that in the plasma.

SV2A = SV2A (Macaca mulatta, UniProt H9EQH8); settings: previously determined; cited from earlier work
Chain of SV2A (H9EQH8 1-742): as the sequence (Q7L0J3 whole entry) above, with G64S, I572V counted along it

Structure (SMILES): Cc1cnccc1CN1C[C@@H](c2cc(F)cc(F)c2)CC1=O [SynVesT-1]
Ki (human SV2A [1]): 3.1 nM

Structure (SMILES): Cc1nccn1CN1CC(c2cc(F)cc(F)c2)CC1=O (racemic) [Rac SDM-16, 4-(3,5-difluorophenyl)-1-((2-methyl-1H-imidazol-1-yl)methyl)pyrrolidin-2-one]
Ki (human SV2A [2]): 3.7 nM

Structure (SMILES): Cc1nccn1CN1C[C@@H](c2cc(F)cc(F)c2)CC1=O [SDM-16]
adverse events [3]: no adverse events were observed
Ki (human SV2A [2]): 0.9 nM

logP [4]: 2.17
fraction unbound [5]: 0.195
fraction unbound at 5 min [6]: 0.41
Structure (SMILES): Cc1cnccc1CN1C[C@@H](c2cccc([18F])c2)CC1=O [[^18F]SynVesT-2]
VND (SV2A): 2.10 mL/cm^3
